Experimental data published in patent US9618513B2, “Compositions and methods for detecting and treating colorectal cancer” (The Regents of the University of Michigan, priority 2014, dated 2017).

Key:
ALDH1 = experiment: ALDH activity by FACS (aldefluor fluorescence); type: cell-based, human; details: DLD-1, HT29 and two primary colon cancer cell lines, IL-22 24 hours
Description: (A), IL-22 is expressed in colon cancer tissues. IL-22 mRNA was detected by real-time PCR in colon cancer tissues and peripheral blood. *P<0.05 compared to blood, 20 colon cancer patients. (B-D), Endogenous IL-22 promotes colon carcinogenesis. Single cells (10^7) isolated from colon cancer tissue were mixed with anti-IL-22 antibody or control mAb, and then subcutaneously injected to NSG mice. Tumor growth (B), incidence (C), and animal survival (D) are shown. (P<0.05 for all, n=5 per group). (E-G) Recombinant IL-22 promotes colon carcinogenesis. DLD-1 colon cancer cells (10^5) were pre-incubated with IL-22 (20 ng/ml) for 1 hour, and then subcutaneously injected to NSG mice. […] ALDH activity was determined by FACS based on aldefluor fluorescence. […] Results are expressed as fold changes of ALDH expression. […] The mRNA of stem cell core gene was detected by real-time PCR (K) and proteins were detected by western blotting (L, M). […]
(A, B) IL-22 is expressed by immune cells in colon cancer tissues. Different cell populations were sorted from colon cancer tissues and IL-22 expression was measured by real time PCR. […] IL-22 was detected via ELISA. […] IL-22 was detected with ELISA (D) or intracellular staining (E). […] IL-22 mRNA was detected by real time PCR (F) and protein by ELISA (G). […] IL-22 expression was quantified with real-time PCR in the migrated and non-migrated cells. […]

DOT1L, AFF4, MLLT10 = experiment: DOT1L complex gene expression by real-time PCR; type: cell-based, human; details: DLD-1 and primary colon cancer cells, IL-22 12 hours
Experimental: (A) IL-22 induces H3K79me2 in colon cancer cells. Colon cancer cells were treated with IL-22 for 48 hours. Total histone modifications were analyzed by western blot. (B, C) DOT1L inhibitor, EPZ004777 suppresses colon cancer sphere formation induced by IL-22. Colon cancer sphere assay was performed in the presence of IL-22 and EPZ004777. Sphere numbers were recorded. DLD-1 cells (B), primary colon cancer cells (C). (n=5, P<0.05). (D, E) IL-22 stimulates DOT1L complex gene expression. Colon cancer cells were cultured for 12 hours with IL-22. DOT1L complex gene expression was quantified by real-time PCR. DLD-1 cells (D), primary colon cancer cells (E). (n=3, P<0.05). (F) DOT1L knock down results in reduced colon cancer sphere formation induced by IL-22. Colon cancer sphere assay was performed with colon cancer cells expressing sh-DOT1L or vector in the presence of IL-22. Sphere numbers were recorded. (n=5, P<0.05). (G-I), IL-22 causes higher occupancy of H3K79me2 on core stem cell gene promoters. H3K79me2-ChIP assay was performed in DLD-1 colon cancer cells cultured with IL-22. One of 3 experiments is shown. […]
The mRNA was quantified by real-time RT-PCR. […] SYBR Green Master Mix was used to detect fluorescence. Relative expression was calculated according to the Ct value with normalization to GAPDH.

In the case of “IL-22: recombinant IL-22 (R&D systems), cytokine interleukin-22”, the “aldehyde dehydrogenase (ALDH1) activity” value (ALDH1) is reported as “increased” and the “expression of DOT1L, AFF4” value (DOT1L, AFF4, MLLT10) is reported as “consistently promoted”.
